The values that follow come from US8916686B2, “TDF-related compounds and analogs thereof” (Thrasos Innovation, Inc., priority 2004, dated 2014).

The test has as its system HK-2 (Human Kidney-2) cells. Kind of test: HK-2 cell culture, TNF-alpha induced cytokine production (IL-6 ELISA). Format: cell-based. The procedure:
The immortalized PTEC-derived HK-2 (Human Kidney-2) cells (ATCC number CRL-2190) were grown in serum-free keratinocyte medium (GIBCO number 17005-042) supplemented with epidermal growth factor (EGF: 5 ng/mL) and bovine pituitary extract (40 ug/mL) for 48 hours as described previously (Ryan et al (1994) Kidney International 45:48-57). Cells were transferred to 24-well plates at a density of 3×10^5 cells per well. After 24 hours, cells were incubated with fresh medium containing TNF-alpha (5 ng/mL) for 20 hours. Controls received medium alone. Then cells were washed twice with fresh culture medium and further incubated with culture medium alone (medium control, and TNF control wells) or TDF-1 at three different concentrations (40, 200 or 1000 ng/mL) or TDFRP compounds at three different concentrations (4, 20 or 100 uM) for sixty hours. During incubation, cells were kept in a 5% CO2 humid atmosphere at 37° C. At the end of the incubation, the media were removed and stored frozen until assayed. The concentrations of IL-6, IL-8 and sICAM-1 in culture supernatants were measured by specific ELISA (FIG. 10). […]
An 8 point standard curve is prepared using 2-fold serial dilutions in reagent diluent. […] The optical density of each well is determined immediately using a microplate reader (Dynex Revelation 4.22) set to 450 nm and a wavelength correction at 550 nm […]
(In general: ELISA stands for enzyme-linked immunosorbent assay.)

In the case of CYFDDSSNVLCKKYRS [SEQ ID NO 45], the “TNF-alpha induced inflammatory response (increase in IL-6) in proximal tubule cells” value is given as “can alleviate this inflammatory response”.
